What follows are compounds tested on Saccharomyces cerevisiae ABC16-Green Monster (assay: growth inhibition at single dose (up to 150 µM), below the 70% cut-off for dose-response; higher = more potent). Details: 18 h; 30 °C; YPD.
In short: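 Drug-sensitive S. cerevisiae ABC16-Green Monster cells were grown overnight in YPD at 30 °C and diluted to log phase (OD600 0.1–0.2). Each library compound was added at one dose of 150 µM to 200 µl culture per well in 96-well plates, in biological duplicates, with untreated cultures alongside. OD600 was read at 0 h and after 18 h at 30 °C. The value is percent growth inhibition; compounds below 70% in both replicates were not taken to dose-response.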

| SMILES | growth inhibition at single dose [%] |
| --- | --- |
| NS(=O)(=O)c1cccc(-c2ccc3ncc(N4CCOCC4)nc3c2)c1 | < 70 |
| COc1ccc2c(=O)c(C(=O)N(C)Cc3ccc(F)c(F)c3)c[nH]c2c1 | < 70 |
| CC1CCc2[nH]c3ccc(C(=O)Nc4ccccc4N4CCCCC4)cc3c2C1 (stereo not given) | < 70 |
| Cc1cc(C)c2c(c1)OCN(Cc1ccccc1Cl)C2 | < 70 |
| CC(C)CNC(=O)c1c(N)n(CCc2ccccc2F)c2nc3ccccc3nc12 | < 70 |
| CC(C)(C)c1ccc(C(=O)NCCOc2ccccc2F)cc1 | < 70 |
| Cc1ccc2c(c1)s/c(=N/C(=O)c1cccs1)n2C | < 70 |
| CCCCN(CCCC)c1c(C#N)cc(S(=O)(=O)Nc2ccccc2)cc1C#N | < 70 |
| COc1ccc(-c2nonc2NC(=O)c2cccc(C)c2)cc1OC | < 70 |
| O=C(Nc1nc2c(s1)CCCC2)c1cc(F)c(F)c(F)c1F | < 70 |
| Cc1cc(NC(=O)c2cccc(C(F)(F)F)c2)n(-c2nc(-c3ccc4c(c3)OCO4)cs2)n1 | < 70 |
| Cc1ccc2c(C)nc(Nc3nc(C)cc(-c4ccccc4)n3)nc2c1 | < 70 |
| CCOc1ccc2nc(C)cc(Nc3ccc(Br)cc3)c2c1 | < 70 |
| COc1ccc(-c2c(C)nn3c(N)c(C#N)cnc23)cc1OC | < 70 |
| CN(C)c1ccc(CNc2ncnc3ccccc23)cc1 | < 70 |
| CN1CCN(c2nccc3[nH]c(-c4cccc(F)c4)cc23)CC1 | < 70 |
| CCOc1ccccc1NC(=O)CN1CCN(C(=O)c2ccco2)CC1 | < 70 |
| Cc1cc(NC(=O)c2cccc(S(=O)(=O)N3c4ccccc4CC3C)c2)no1 (stereo not given) | < 70 |
| CN(C)c1ccc(C=Cc2nc(=O)c3ccccc3o2)cc1 | < 70 |
| Oc1ccccc1CN1CCC2(CCCN(Cc3ccccc3F)C2)C1 (stereo not given) | < 70 |

| SMILES | growth inhibition at single dose [%] |
| --- | --- |
| Oc1ccc(Br)cc1CN1CCN(Cc2cccc(F)c2)CC1 | < 70 |
| COc1cccn2c(C(=O)N3CCCCC3)c(C(F)(F)F)nc12 | < 70 |
| C=CCn1c[n+](C2=C(NS(=O)(=O)c3ccc(C)cc3)C(=O)c3ccccc3C2=O)c2ccccc21 | < 70 |
| CC(=O)N(CCN(C(=O)c1ccc(F)cc1)c1ccccc1)c1ccccc1 | < 70 |
| OC(CNCc1ccccc1)Cn1c2ccccc2c2ccccc21 (stereo not given) | < 70 |
| COc1ccc(CCNc2ncnc3sc(C)cc23)cc1OC | < 70 |
| CC1S/C(=C\c2nc3ccccc3s2)NC1=O (stereo not given) | < 70 |
| COc1ccc(CN2CCOc3ccc(C(C)(O)CN(C)C)cc3C2)cc1C (stereo not given) | < 70 |
| CC1CS(=O)(=O)CCN1/N=C/c1ccc([N+](=O)[O-])o1 (stereo not given) | < 70 |
| CCC(c1ccccc1)c1nn2c(-c3cccs3)nnc2s1 (stereo not given) | < 70 |
| CCN(CC)CCNc1ccnc2cc3ccccc3cc12 | < 70 |
| COc1ccc(-c2nn(C(C)C)c3ncnc(N)c23)cc1OC | < 70 |
| Cc1cc(NC(=O)c2ccc(-c3ccccc3)cc2)no1 | < 70 |
| Cc1ccc(-c2cc(C(=O)Nc3cccnc3)c3cc(Br)ccc3n2)cc1 | < 70 |
| Clc1cccc(CO[C@H]2CCc3ccccc3[C@@H]2n2ccnn2)c1 | < 70 |
| O=C1N=C(Nc2cccnc2)S/C1=C/c1ccc2ncccc2c1 | < 70 |
| COc1ccccc1N1C(=N)SC(=Cc2ccc(OCc3ccccc3F)cc2)C1=O | < 70 |
| CCOC(=O)C1=C(C)N=c2sc(=Cc3ccccc3O)c(=O)n2C1c1ccc(OC)c2ccccc12 (stereo not given) | < 70 |
| Cn1c(Oc2cccc3c2OC(C)(C)C3)c(C#N)c(=O)n(C)c1=O | < 70 |
| CN(N=O)C1=C(NC2CCCCC2)C(=O)c2ccccc2C1=O | < 70 |

From the supplement of paper PMC8837787
